For 4 compounds, remaining activity results are on record in paper PMC7827406, “Structure–Activity Relationship (SAR) Study of Spautin-1 to Entail the Discovery of Novel NEK4 Inhibitors” (International Journal of Molecular Sciences, 2021).

Molecules are shown by their SMILES. Like-named read-outs stand apart in the source and are kept apart here.

Assay in all cases: biochemical
Holding throughout (parameters): Eurofins KinaseProfiler full panel at Km ATP, residual kinase activity (%) relative to DMSO

For assay [1], the target named is CDK14/cyclinY(h) (Homo sapiens, UniProt O94921). Summed up: (§1)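 Compounds screened at 10 µM in radiometric kinase activity assays at Km ATP, reported as remaining kinase activity (%). A KINOMEscan competition-binding screen at 10 µM measured DNA-tagged kinase retained on immobilized active-site ligand by qPCR.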
Chain of CDK14/cyclinY(h) (O94921 whole entry): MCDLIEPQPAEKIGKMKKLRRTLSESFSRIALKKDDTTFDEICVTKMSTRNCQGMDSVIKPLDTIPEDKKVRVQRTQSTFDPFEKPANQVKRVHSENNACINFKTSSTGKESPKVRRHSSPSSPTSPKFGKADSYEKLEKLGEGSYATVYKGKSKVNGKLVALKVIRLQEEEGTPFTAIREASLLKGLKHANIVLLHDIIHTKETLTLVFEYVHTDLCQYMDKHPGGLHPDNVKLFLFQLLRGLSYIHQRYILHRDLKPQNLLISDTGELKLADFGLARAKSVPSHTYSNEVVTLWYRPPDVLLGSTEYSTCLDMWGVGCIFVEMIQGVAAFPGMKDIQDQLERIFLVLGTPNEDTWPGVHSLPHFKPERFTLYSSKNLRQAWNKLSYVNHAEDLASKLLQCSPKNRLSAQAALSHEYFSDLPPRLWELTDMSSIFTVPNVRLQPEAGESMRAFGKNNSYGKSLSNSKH
Chain of CDK14/cyclinY(h) (Q8ND76 whole entry partner): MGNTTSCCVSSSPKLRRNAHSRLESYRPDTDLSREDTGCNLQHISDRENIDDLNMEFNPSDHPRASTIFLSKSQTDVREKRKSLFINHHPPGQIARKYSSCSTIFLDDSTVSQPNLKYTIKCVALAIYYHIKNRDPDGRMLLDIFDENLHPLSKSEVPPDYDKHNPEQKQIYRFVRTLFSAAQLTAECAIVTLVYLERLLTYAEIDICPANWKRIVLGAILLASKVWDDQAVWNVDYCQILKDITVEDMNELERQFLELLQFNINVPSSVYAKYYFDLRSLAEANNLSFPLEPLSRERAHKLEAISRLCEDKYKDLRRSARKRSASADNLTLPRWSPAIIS
Assay [2] has as its target CDK4/cyclinD3(h) (Homo sapiens, UniProt P11802). The gist of the method: as §1
The target in assay [3] is CaMKK2(h) (Homo sapiens, UniProt Q96RR4). The gist of the method:
as §1

In assay [4] the target is T1, DCAMKL2(h) (Homo sapiens, UniProt Q8N568).
T1 construct: gene DCLK2
T1 sequence (Q8N568 1-766): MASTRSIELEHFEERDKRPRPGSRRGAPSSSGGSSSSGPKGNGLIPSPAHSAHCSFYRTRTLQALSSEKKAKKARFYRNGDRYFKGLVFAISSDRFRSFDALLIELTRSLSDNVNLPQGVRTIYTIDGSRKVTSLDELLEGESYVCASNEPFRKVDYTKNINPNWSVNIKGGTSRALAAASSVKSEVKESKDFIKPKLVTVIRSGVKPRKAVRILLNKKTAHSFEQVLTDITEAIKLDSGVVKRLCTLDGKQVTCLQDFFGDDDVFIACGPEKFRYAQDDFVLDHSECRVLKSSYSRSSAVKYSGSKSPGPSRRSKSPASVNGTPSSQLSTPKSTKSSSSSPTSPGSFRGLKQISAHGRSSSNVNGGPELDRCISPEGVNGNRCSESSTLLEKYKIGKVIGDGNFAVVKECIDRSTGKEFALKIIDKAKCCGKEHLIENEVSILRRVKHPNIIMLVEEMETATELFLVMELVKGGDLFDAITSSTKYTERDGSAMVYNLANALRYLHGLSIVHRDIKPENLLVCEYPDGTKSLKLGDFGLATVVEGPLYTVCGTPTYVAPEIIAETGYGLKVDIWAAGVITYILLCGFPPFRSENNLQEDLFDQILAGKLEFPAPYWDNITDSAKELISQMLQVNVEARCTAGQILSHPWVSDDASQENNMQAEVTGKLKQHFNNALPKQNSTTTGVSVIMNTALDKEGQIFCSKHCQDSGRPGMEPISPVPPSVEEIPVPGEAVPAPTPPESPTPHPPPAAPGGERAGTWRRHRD
The gist of the method: as §1

Assay [5] concerns the target EGFR(T790M)(h) (Homo sapiens, UniProt P00533, T790M). Summed up: as §1
Assay [6] concerns the target FGFR1(V561M)(h) (Homo sapiens, UniProt P11362, V561M). The gist of the method:
as §1

The target in assay [7] is T2, Fms(Y969C)(h) (Homo sapiens, UniProt P07333, Y969C).
T2 construct: gene CSF1R
T2 sequence (P07333 whole entry Y969C): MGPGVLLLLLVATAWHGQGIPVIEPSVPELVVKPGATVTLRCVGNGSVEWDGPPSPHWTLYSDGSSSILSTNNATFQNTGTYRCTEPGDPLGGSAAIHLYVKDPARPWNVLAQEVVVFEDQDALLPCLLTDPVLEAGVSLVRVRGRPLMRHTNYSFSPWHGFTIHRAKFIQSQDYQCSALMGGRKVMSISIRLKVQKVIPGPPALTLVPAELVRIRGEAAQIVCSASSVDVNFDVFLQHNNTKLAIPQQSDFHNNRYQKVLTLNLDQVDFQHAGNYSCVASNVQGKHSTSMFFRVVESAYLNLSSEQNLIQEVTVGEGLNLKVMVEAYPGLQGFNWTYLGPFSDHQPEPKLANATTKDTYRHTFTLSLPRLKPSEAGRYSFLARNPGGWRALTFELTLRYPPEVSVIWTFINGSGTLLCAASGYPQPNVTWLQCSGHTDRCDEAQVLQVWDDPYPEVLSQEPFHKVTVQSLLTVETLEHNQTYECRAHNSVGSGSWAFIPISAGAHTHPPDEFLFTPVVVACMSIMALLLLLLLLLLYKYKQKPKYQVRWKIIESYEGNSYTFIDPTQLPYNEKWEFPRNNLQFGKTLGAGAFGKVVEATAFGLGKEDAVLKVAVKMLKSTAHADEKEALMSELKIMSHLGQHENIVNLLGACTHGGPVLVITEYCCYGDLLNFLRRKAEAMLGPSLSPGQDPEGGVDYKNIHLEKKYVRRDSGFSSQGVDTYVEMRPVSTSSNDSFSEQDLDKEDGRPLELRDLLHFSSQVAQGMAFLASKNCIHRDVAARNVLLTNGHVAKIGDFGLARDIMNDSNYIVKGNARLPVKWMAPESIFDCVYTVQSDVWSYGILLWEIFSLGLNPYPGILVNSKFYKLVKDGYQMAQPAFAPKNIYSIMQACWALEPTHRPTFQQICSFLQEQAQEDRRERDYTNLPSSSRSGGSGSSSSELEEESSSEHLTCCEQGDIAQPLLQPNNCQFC
Summed up:
as §1

Assay [8] has as its target Lck(h) (Homo sapiens, UniProt P06239). The gist of the method:
as §1

In assay [9] the target is MARK3(h) (Homo sapiens, UniProt P27448). The gist of the method: as §1
Setting [10] is: read-out: Residual activity (%) Spautin-1 5aa.
Where [11] appears, read: read-out: Residual activity (%) 5as.
Setting [12] is: read-out: Residual activity (%) 5at.
Setting [13] is: read-out: Residual activity (%) 5ay.

Chain of CaMKK2(h) (Q96RR4 whole entry): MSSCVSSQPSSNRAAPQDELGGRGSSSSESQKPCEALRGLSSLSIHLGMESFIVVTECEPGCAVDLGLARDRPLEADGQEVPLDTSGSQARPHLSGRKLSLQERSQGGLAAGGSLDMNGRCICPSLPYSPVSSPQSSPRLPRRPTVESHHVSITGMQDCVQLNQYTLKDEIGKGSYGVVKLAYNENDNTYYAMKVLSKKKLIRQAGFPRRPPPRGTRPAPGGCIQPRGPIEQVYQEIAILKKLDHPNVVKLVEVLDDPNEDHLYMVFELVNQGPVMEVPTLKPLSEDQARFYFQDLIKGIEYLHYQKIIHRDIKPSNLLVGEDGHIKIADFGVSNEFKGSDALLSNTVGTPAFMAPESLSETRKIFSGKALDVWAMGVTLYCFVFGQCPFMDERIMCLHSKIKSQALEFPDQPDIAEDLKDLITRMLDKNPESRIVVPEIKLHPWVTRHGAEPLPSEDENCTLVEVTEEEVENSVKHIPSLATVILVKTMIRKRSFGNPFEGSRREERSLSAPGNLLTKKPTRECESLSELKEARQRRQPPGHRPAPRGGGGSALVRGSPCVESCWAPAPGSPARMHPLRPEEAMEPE
Chain of FGFR1(V561M)(h) (P11362 whole entry V561M): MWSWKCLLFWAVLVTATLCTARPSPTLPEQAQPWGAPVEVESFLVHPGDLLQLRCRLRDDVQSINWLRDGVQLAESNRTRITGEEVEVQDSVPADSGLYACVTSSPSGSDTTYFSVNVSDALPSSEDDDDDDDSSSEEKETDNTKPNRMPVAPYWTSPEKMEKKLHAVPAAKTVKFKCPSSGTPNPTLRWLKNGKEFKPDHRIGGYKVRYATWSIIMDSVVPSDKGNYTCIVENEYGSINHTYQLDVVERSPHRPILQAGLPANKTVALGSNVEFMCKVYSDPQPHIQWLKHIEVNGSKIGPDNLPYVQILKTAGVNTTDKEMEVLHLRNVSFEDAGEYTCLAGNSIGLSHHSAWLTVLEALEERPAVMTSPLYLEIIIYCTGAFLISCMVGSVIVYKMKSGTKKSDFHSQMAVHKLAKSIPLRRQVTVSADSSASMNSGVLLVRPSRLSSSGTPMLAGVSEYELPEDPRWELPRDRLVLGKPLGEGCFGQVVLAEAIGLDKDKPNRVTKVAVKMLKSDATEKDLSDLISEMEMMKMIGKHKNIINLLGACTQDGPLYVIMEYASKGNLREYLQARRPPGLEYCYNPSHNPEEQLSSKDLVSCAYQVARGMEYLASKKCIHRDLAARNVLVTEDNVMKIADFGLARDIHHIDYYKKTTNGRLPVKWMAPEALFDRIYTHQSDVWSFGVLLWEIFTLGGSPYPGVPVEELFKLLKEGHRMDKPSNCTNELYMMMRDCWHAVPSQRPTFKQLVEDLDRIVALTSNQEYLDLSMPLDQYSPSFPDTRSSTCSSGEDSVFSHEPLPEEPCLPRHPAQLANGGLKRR
Chain of EGFR(T790M)(h) (P00533 whole entry T790M): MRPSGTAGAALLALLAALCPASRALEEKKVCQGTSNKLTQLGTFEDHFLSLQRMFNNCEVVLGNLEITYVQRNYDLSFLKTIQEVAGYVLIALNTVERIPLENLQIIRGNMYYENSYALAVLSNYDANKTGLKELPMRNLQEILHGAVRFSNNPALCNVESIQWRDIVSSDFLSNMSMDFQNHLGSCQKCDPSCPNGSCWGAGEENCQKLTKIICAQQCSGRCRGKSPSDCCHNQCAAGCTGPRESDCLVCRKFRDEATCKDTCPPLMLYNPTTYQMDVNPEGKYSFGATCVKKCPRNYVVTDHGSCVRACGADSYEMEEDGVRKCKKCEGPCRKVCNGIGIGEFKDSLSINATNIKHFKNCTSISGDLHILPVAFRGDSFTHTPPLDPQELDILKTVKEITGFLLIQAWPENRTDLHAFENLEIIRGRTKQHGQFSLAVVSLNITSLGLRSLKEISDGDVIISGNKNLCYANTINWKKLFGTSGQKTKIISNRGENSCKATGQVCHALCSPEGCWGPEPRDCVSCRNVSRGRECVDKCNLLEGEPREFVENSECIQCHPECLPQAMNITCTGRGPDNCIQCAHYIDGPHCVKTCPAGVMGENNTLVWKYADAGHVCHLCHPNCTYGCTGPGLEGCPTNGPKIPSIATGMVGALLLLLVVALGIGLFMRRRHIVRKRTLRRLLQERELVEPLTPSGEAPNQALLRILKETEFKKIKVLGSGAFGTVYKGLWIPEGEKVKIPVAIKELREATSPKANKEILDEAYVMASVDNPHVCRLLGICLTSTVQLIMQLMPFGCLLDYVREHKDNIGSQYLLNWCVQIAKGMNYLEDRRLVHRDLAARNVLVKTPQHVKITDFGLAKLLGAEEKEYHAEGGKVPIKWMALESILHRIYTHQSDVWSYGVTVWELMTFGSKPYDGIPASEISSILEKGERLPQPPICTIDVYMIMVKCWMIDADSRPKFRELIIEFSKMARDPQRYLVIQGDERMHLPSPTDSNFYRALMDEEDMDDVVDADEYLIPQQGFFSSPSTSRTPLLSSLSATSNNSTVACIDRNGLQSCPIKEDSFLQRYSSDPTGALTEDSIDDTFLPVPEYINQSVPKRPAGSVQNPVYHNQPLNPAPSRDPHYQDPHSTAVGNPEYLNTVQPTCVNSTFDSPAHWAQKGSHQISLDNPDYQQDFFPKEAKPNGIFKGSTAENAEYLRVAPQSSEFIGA
Chain of Lck(h) (P06239 whole entry): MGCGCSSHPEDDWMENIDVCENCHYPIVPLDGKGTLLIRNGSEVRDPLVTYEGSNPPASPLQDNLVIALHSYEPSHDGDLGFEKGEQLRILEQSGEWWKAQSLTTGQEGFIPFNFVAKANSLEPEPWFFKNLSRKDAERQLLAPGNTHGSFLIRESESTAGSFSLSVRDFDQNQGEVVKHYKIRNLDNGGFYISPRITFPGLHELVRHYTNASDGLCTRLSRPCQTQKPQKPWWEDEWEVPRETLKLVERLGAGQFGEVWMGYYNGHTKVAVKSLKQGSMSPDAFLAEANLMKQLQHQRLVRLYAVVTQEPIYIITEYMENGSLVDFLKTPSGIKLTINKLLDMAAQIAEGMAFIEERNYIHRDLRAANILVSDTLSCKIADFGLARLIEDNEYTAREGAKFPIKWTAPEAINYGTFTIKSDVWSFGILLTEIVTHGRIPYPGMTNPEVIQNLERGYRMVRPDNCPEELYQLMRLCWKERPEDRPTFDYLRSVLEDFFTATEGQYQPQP

`Fc1ccc(CNc2ncnc3ccc(F)cc23)cc1` [5aa, 6-Fluoro-N-(4-fluorobenzyl)-4-Quinazolinamine]: the remaining activity at 10 µM in assay [1] (setting [10]) came to 107%; in assay [2] (setting [10]), 101%; in assay [3] (setting [10]) it was 79%; in assay [4] (setting [10]) it was 81%; in assay [5] (setting [10]), 90%; in assay [6] (setting [10]), 123%. The remaining activity at 10 µM in assay [7] (setting [10]) came to 81%; in [8] (setting [10]), 90%; in assay [9] (setting [10]) it was 95%.

For the compound `Fc1ccc(CCNc2ncnc3ccc(F)cc23)cc1` [5as, 6-Fluoro-N-[2-(4-Fluorophenyl)Ethyl]-4-Quinazolinamine], the remaining activity at 10 µM was determined as 103% in assay [1] (setting [11]); 97% in [2] (setting [11]); 87% in assay [3] (setting [11]); 64% in assay [4] (setting [11]); 87% in assay [5] (setting [11]); 100% in assay [6] (setting [11]). The results for the remaining activity at 10 µM in [7] (setting [11]), in assay [8] (setting [11]) and in [9] (setting [11]) were 80%, 94% and 87%, respectively.

For `Fc1ccc2ncnc(NCCc3ccc(Cl)cc3)c2c1` [5at, N-[2-(4-Chlorophenyl)Ethyl]-6-Fluoro-4-Quinazolinamine], the remaining activity at 10 µM in [1] (setting [12]) was 109%; in assay [2] (setting [12]), 95%; in assay [3] (setting [12]), 96%; in [4] (setting [12]) it was 57%; in [5] (setting [12]), 74%; in assay [6] (setting [12]), 95%. Besides, the remaining activity at 10 µM in [7] (setting [12]) was found to be 78%; in assay [8] (setting [12]), 82%; in assay [9] (setting [12]) it was 85%.

Consider `COc1ccc2ncnc(Nc3cccc(F)c3)c2c1` [5ay, N-(3-Fluorophenyl)-6-Methoxy-4-Quinazolinamine], for which the remaining activity at 10 µM in assay [1] (setting [13]) stood at 93%; in assay [2] (setting [13]), 100%; in assay [3] (setting [13]), 78%; in assay [4] (setting [13]), 80%; in assay [5] (setting [13]) it was 65%; in assay [6] (setting [13]), 108%. Further, the remaining activity at 10 µM was 87% in [7] (setting [13]), 78% in assay [8] (setting [13]) and 89% in assay [9] (setting [13]).
